Data published in patent publication US20210402016A1, “RADIOLABELED BOMBESIN-DERIVED COMPOUNDS FOR IN VIVO IMAGING OF GASTRIN-RELEASING PEPTIDE RECEPTOR (GRPR) AND TREATMENT OF GRPR-RELATED DISORDERS” (Provincial Health Services Authority, priority 2018, published 2021).
Read-outs that look alike come from different tables or passages of the source.

Assay: Biodistribution in PC-3 tumor-bearing NRG mice (Example 1)
Type: in vivo
Settings: male, NRG (NOD.Cg-Rag1tm1Mom Il2rgtm1Wjl/SzJ), mouse, iv, 1.84 MBq, total radioactivity; for tissue uptake at 0.5 h: 30 min p.i.; for tissue uptake at 1 h: 60 min p.i.; for tissue uptake at 2 h: 120 min p.i.
Description: The mice were sacrificed by CO2 inhalation at 30 min, 1 h, and 2 h p.i. Blood was collected by cardiac puncture. Organs/tissues were harvested, rinsed with PBS, blotted dry, and weighed. The activity in tissues was assayed by gamma counter and expressed as the percentage injected dose per gram of tissue (% ID/g).

[1] = PC-3 tumor, read-out: Biodistribution PC-3 Tumor, Mean
[2] = adrenals, read-out: Biodistribution Adrenals, Mean
[3] = bone, read-out: Biodistribution Bone, Mean
[4] = brain, read-out: Biodistribution Brain, Mean
[5] = fat, read-out: Biodistribution Fat, Mean
[6] = intestine, read-out: Biodistribution Intestine, Mean
[7] = kidney, read-out: Biodistribution Kidney, Mean
[8] = liver, read-out: Biodistribution Liver, Mean
[9] = lung, read-out: Biodistribution Lung, Mean
[10] = muscle, read-out: Biodistribution Muscle, Mean
[11] = pancreas, read-out: Biodistribution Pancreas, Mean
[12] = seminal glands, read-out: Biodistribution Seminal glands, Mean
[13] = spleen, read-out: Biodistribution Spleen, Mean
[14] = testes, read-out: Biodistribution Testes, Mean
[15] = whole blood, read-out: Biodistribution Blood, Mean

`CC(C)C[C@@H](CN1CCC[C@H]1C(N)=O)NC(=O)[C@H](Cc1c[nH]cn1)NC(=O)CNC(=O)[C@@H](NC(=O)[C@H](C)NC(=O)[C@H](Cc1c[nH]c2ccccc12)NC(=O)[C@H](CCC(N)=O)NC(=O)[C@@H](Cc1ccccc1)NC(=O)COCC(=O)Nc1ccc(CNC(=O)CN2CCN(CC(=O)O)CCN(CC(=O)O)CCN(CC(=O)O)CC2)cc1)C(C)C` [^68Ga-ProBOMB1, metal not drawn] showed a tissue uptake at 0.5 h [1] of 4.62 %ID/g, a tissue uptake at 1 h [1] of 8.17 %ID/g and a tissue uptake at 2 h [1] of 8.31 %ID/g. For the same molecule, the tissue uptake at 0.5 h [2] was 0.95 %ID/g, the tissue uptake at 1 h [2] was 0.65 %ID/g and the tissue uptake at 2 h [2] was 1.23 %ID/g. For the same molecule, the tissue uptake at 0.5 h [3] was 0.22 %ID/g, the tissue uptake at 1 h [3] was 0.26 %ID/g and the tissue uptake at 2 h [3] was 0.39 %ID/g. It also gave a tissue uptake at 0.5 h [4] of 0.02 %ID/g, a tissue uptake at 1 h [4] of 0.02 %ID/g and a tissue uptake at 2 h [4] of 0.03 %ID/g. It also gave a tissue uptake at 0.5 h [5] of 0.17 %ID/g, a tissue uptake at 1 h [5] of 0.06 %ID/g and a tissue uptake at 2 h [5] of 0.07 %ID/g. For the same molecule, the tissue uptake at 0.5 h [6] was 2.63 %ID/g, the tissue uptake at 1 h [6] was 2.47 %ID/g and the tissue uptake at 2 h [6] was 1.68 %ID/g. For the same molecule, the tissue uptake at 0.5 h [7] was 2.83 %ID/g, the tissue uptake at 1 h [7] was 1.4 %ID/g and the tissue uptake at 2 h [7] was 0.78 %ID/g. For the same molecule, the tissue uptake at 0.5 h [8] was 1.93 %ID/g, the tissue uptake at 1 h [8] was 1.21 %ID/g and the tissue uptake at 2 h [8] was 0.75 %ID/g. For the same molecule, the tissue uptake at 0.5 h [9] was 0.54 %ID/g, the tissue uptake at 1 h [9] was 0.35 %ID/g and the tissue uptake at 2 h [9] was 0.25 %ID/g. The tissue uptake at 0.5 h [10] was 0.36 %ID/g, the tissue uptake at 1 h [10] was 0.09 %ID/g and the tissue uptake at 2 h [10] was 0.08 %ID/g. It also gave a tissue uptake at 0.5 h [11] of 10.3 %ID/g, a tissue uptake at 1 h [11] of 4.68 %ID/g and a tissue uptake at 2 h [11] of 1.55 %ID/g. For the same molecule, the tissue uptake at 0.5 h [12] was 0.17 %ID/g, the tissue uptake at 1 h [12] was 1.08 %ID/g and the tissue uptake at 2 h [12] was 0.43 %ID/g. The tissue uptake at 0.5 h [13] was 0.5 %ID/g, the tissue uptake at 1 h [13] was 0.44 %ID/g and the tissue uptake at 2 h [13] was 0.31 %ID/g. The tissue uptake at 0.5 h [14] was 0.31 %ID/g, the tissue uptake at 1 h [14] was 0.11 %ID/g and the tissue uptake at 2 h [14] was 0.09 %ID/g. The tissue uptake at 0.5 h [15] was 1.06 %ID/g, the tissue uptake at 1 h [15] was 0.4 %ID/g and the tissue uptake at 2 h [15] was 0.13 %ID/g.
